Test results as given in ChEMBL document CHEMBL1149587 (2007).

Columns and labels:
Type in all cases: functional
[1] = test system: Rattus norvegicus; assay: Elimination of D-xylose from 18 days old Sprague-Dawley suckling rat urine at 4 mg, po
[2] = test system: Rattus norvegicus; assay: Elimination of D-xylose from 15 days old Sprague-Dawley suckling rat urine at 4 mg, po
[3] = test system: Rattus norvegicus; assay: Elimination of D-xylose from 30 days old Sprague-Dawley suckling rat urine at 4 mg, po

Row | Structure (SMILES) | Activity [1] | Activity [2] | Activity [3]
1 | OC[C@H]1O[C@@H](O[C@H]2C(O)OC[C@@H](O)[C@@H]2O)[C@H](O)[C@@H](O)[C@H]1O (some centres undefined) | 20.71% | 23.1% | 9.43%
2 | OC[C@H]1O[C@@H](O[C@@H]2COC(O)[C@H](O)[C@H]2O)[C@H](O)[C@@H](O)[C@H]1O (some centres undefined) | 6.99% | 23.66% | 3.05%
3 | OC[C@H]1O[C@@H](O[C@H]2[C@H](O)COC(O)[C@@H]2O)[C@H](O)[C@@H](O)[C@H]1O (some centres undefined) | 20.63% | 23.3% | 19.39%
